Data from patent US8163909B2, “Substituted hydroxyethyl amine compounds as beta-secretase modulators and methods of use” (Amgen Inc., priority 2007, dated 2012).
Read-outs that look alike come from different tables or passages of the source.

Legend:
[1] = tested on: Aβ40 in conditioned medium of cells stably expressing Amyloid Precursor Protein (APP); test: In vitro BACE cell-based assay (Aβ40 in conditioned medium, sandwich ELISA);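 also: compounds added as a dilution series, secreted peptide quantified by europium time-resolved fluorescence readout, potency fitted from percent of control versus compound concentration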
[2] = molecular target: Beta Secretase enzyme (BACE) (Homo sapiens, UniProt P56817); test: In vitro enzymatic BACE FRET (fluorescence resonance energy transfer) assay; format: biochemical;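 also: fluorescence read after 1 h with 50 nM quenched peptide substrate spanning the BACE cleavage site, in pH 4.2 acetate buffer containing 10% DMSO and nonionic detergent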
Beta Secretase enzyme (BACE), sequence (P56817 46-501): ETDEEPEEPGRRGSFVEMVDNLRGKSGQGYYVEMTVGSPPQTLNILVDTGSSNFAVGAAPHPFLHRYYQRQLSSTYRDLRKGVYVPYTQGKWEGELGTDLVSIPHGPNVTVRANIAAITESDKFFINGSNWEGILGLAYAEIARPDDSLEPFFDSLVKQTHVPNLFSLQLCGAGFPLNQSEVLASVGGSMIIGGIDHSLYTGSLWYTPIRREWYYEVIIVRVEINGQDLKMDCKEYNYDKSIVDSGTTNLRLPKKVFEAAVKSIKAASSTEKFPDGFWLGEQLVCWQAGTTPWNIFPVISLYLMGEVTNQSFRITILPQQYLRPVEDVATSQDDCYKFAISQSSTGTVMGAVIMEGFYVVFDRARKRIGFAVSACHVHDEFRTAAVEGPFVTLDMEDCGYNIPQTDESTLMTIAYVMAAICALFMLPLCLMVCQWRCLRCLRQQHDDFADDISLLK

[3] = Homo sapiens, HEK293, HEK cells, cell-based assay, read-out: HEK cell assay (IC50)
[4] = BACE enzyme assay, read-out: BACE1 FRET assay (IC50)
[5] = BACE enzyme FRET assay, read-out: BACE1 FRET assay (IC50)
[6] = Homo sapiens, HEK293, Table 1, HEK cells, read-out: HEK cell assay
[7] = Table 1, read-out: BACE1 FRET assay
[8] = HEK cells, cell-based assay, read-out: HEK cell assay (IC50)

Row | IC50 [1, 3] [µM] | IC50 [2, 4] [µM] | IC50 [2, 5] [µM] | SMILES | also measured
1 | 0.00983 | 0.00401 |  | CC(C)(C)Cc1cnc2c(c1)[C@@H](NC[C@@H](O)[C@H](Cc1cccc(C#N)c1)NC(=O)[C@@H](O)C(F)(F)F)CC1(CCC1)O2 [compound 62] | 
2 | 0.0265 |  | 0.0149 | COCC(=O)N[C@@H](Cc1ccccc1)[C@H](O)CN[C@H]1CC2(CCC2)Oc2ncc(CC(C)(F)F)cc21 [compound 273] | 
3 | 0.0209 |  | 0.0244 | CC(=O)CC(=O)N[C@@H](Cc1ccc2c(c1)OCO2)[C@H](O)CN[C@H]1CC2(CCC2)Oc2ncc(CC(C)(C)C)cc21 [compound 308] | 
4 | 0.0214 |  | 0.00901 | CO[C@H](C)C(=O)N[C@@H](Cc1cc(F)c2c(c1)OCO2)[C@H](O)CN[C@H]1CC2(CCC2)Oc2ncc(CC(C)(C)C)cc21 [compound 303] | 
5 | 0.0797 | 0.617 |  | CO[C@H](C(=O)N[C@@H](Cc1ccc(F)cc1)[C@H](O)CN[C@H]1CC2(CCC2)Oc2ncc(CC(C)(C)C)cc21)C(F)(F)F [compound 64] | 
6 | 0.058 |  | 0.0379 | CC(=O)N[C@@H](Cc1cc(F)c2c(c1)OCO2)[C@@H](O)CN[C@H]1CC2(CCC2)Oc2ncc(CC(C)(C)C)cc21 [compound 305, N-((1S,2S)-3-(((4′S)-6′-(2,2-dimethylpropyl)-3′,4′-dihydrospiro[cyclobutane-1,2′-pyrano[2,3-b]pyridin]-4′-yl)amino)-1-((7-fluoro-1,3-benzodioxol-5-yl)methyl)-2-hydroxypropyl)acetamide] | 
7 |  |  |  | COCC(=O)N[C@@H](Cc1ccc2c(c1)OCO2)[C@H](O)CN[C@H]1CC2(CCC2)Oc2nc(F)c(CC(C)C)cc21 [compound 337] | IC50 [1, 6]: 0.531 µM; IC50 [2, 7]: 0.12 µM
8 | 0.102 | 0.0221 |  | COCC(=O)N[C@@H](Cc1ccccc1)[C@H](O)CN[C@H]1CC2(CCC2)Oc2cnc(CC(C)(C)C)cc21 [compound 121] | 
9 | 1 |  | 0.88 | COCC(=O)N[C@@H](Cc1ccc(F)cc1)[C@H](O)CN[C@H]1CC2(CCC2)Oc2ncc([C@@H](O)C(C)(C)C)cc21 [compound 189] | 
10 |  |  |  | COCC(=O)N[C@@H](Cc1ccccc1)[C@H](O)CN[C@H]1CC2(CCC2)Oc2ncc([C@H](F)C(C)(C)C)cc21 [compound 356] | IC50 [1, 6]: 0.00646 µM; IC50 [2, 7]: 0.00317 µM
11 | 0.327 |  | 0.151 | COCC(=O)N[C@@H](Cc1ccc2c(c1)OCO2)[C@H](O)CN[C@H]1CC2(CCC2)Oc2ncc(CC3(C(F)(F)F)CC3)cc21 [compound 313] | 
12 |  |  | 0.0187 | COC(C)C(=O)NC(Cc1ccc2c(c1)OCO2)C(O)CNC1CC2(CC(O)C2)Oc2ccc(CC(C)(C)C)cc21 [compound 268, (2R)—N-((1S,2R)-1-(1,3-benzodioxol-5-ylmethyl)-3-(((2s,3′S,4S)-6-(2,2-dimethylpropyl)-3′-hydroxy-3,4-dihydrospiro[chromene-2,1′-cyclobutan]-4-yl)amino)-2-hydroxypropyl)-2-(methyloxy)propanamide] | IC50 [1, 8]: 0.0151 µM
13 | 0.115 | 0.00775 |  | COCC(=O)N[C@@H](Cc1cccc(F)c1)[C@H](O)CN[C@H]1CC2(CCC2)Oc2c1cc(CC(C)(C)C)nc2OCC(F)(F)F [compound 140, N-((1S,2R)-3-(((4′S)-6′-(2,2-dimethylpropyl)-8′-((2,2,2-trifluoroethyl)oxy)-3′,4′-dihydrospiro[cyclobutane-1,2′-pyrano[2,3-c]pyridin]-4′-yl)amino)-1-((3-fluorophenyl)methyl)-2-hydroxypropyl)-2-(methyloxy)acetamide] | 
14 | 0.0321 |  | 0.029 | CC(=O)NC(Cc1ccc(F)cc1)C(O)CNC1CC2(CCC2)Oc2ncc(CC(C)C(F)F)cc21 [compound 198, N-((1S,2R)-3-(((4′S)-6′-((2S)-3,3-difluoro-2-methylpropyl)-3′4′-dihydrospiro[cyclobutane-1,2′-pyrano[2,3-b]pyridin]-4′-yl)amino)-1-((4-fluorophenyl)methyl)-2-hydroxypropyl)acetamide] | 
15 |  |  |  | COCC(=O)N[C@@H](Cc1cccc(C#N)c1)[C@H](O)CN[C@H]1CC2(CCC2)Oc2ncc(CC(F)(F)F)cc21 [compound 347] | IC50 [1, 6]: 0.0192 µM; IC50 [2, 7]: 0.0104 µM
16 |  |  |  | CO[C@H](C)C(=O)N[C@@H](Cc1cc(F)cc(Cl)c1)[C@H](O)CN[C@H]1CC2(CCC2)Oc2ccc(CC(C)C)cc21 [compound 805] | IC50 ([1]; Homo sapiens, HEK293, HEK cell-based assay, IC50's in uM, read-out: HEK cell assay): 0.07 µM; IC50 ([2]; BACE enzyme assay, IC50's in uM, read-out: BACE1 FRET assay): 0.003 µM
17 | 1.66 |  | 0.0612 | COCC(=O)N[C@@H](Cc1ccc(F)cc1)[C@H](O)CN[C@H]1CC2(CCC2)Oc2ncc([C@H](O)C(C)(C)C)cc21 [compound 188] | 
18 |  | 0.00369 |  | CC(C)(C)Cc1cnc2c(c1)[C@@H](NC[C@@H](O)[C@H](Cc1cc(F)cc(F)c1)NC(=O)CCl)CC1(CCC1)O2 [compound 104] | IC50 [1, 8]: 0.0187 µM
19 | 0.00527 |  | 0.00415 | CC(=O)N[C@@H](Cc1cc(F)cc(F)c1)[C@H](O)CN[C@H]1CC2(CCC2)Oc2ncc(CC(C)(C)C(F)F)cc21 [compound 226] | 
20 |  |  |  | COCC(=O)N[C@@H](Cc1ccc(F)c(Cl)c1)[C@H](O)CN[C@H]1CC2(CCC2)Oc2ncc(CC(C)(C)C)cc21 [compound 351] | IC50 [1, 6]: 0.0123 µM; IC50 [2, 7]: 0.00275 µM
21 | 0.148 | 0.117 |  | CC(=O)N[C@@H](Cc1ccc(F)cc1)[C@H](O)CN[C@H]1C[C@@]2(CC[C@H]2O)Oc2ncc(CC(C)(C)C)cc21 [compound 116] | 
22 | 0.076 | 0.0401 |  | CO[C@@H](C)C(=O)N[C@@H](Cc1ccc(F)cc1)[C@H](O)CN[C@H]1CC2(CCC2)Oc2ncc(CC(C)(C)C)cc21 [compound 155] | 
23 | 0.0792 | 0.00495 |  | CC(C)(C)Cc1cnc2c(c1)[C@@H](NC[C@@H](O)[C@H](Cc1cc(F)cc(F)c1)NC(=O)OCc1cncs1)CC1(CCC1)O2 [compound 93] | 
24 |  |  |  | CO[C@H](C)C(=O)N[C@@H](Cc1ccc2c(c1)OCO2)[C@H](O)CN[C@H]1CC2(CCC2)Oc2ncc(C[C@@H](C)C(F)(F)F)cc21 [compound 342] | IC50 [1, 6]: 0.343 µM; IC50 [2, 7]: 0.175 µM
25 | 0.0526 | 0.0072 |  | CC(=O)N[C@@H](Cc1ccc(F)cc1)[C@H](O)CN[C@H]1CC2(CCC2)Oc2c(F)cc(CC(C)(C)C)cc21 [compound 174] | 
26 |  |  |  | COC(=O)N[C@@H](Cc1ccc2c(c1)OCO2)[C@H](O)CN[C@H]1CC2(CCC2)Oc2ncc([C@H](F)C(C)(C)C)cc21 [compound 359] | IC50 [1, 6]: 0.208 µM; IC50 [2, 7]: 0.199 µM

Row | SMILES | IC50 [1, 3] [µM] | IC50 [2, 4] [µM] | IC50 [2, 5] [µM] | also measured
27 | CO[C@H](C)C(=O)N[C@@H](Cc1ccc(F)cc1)[C@H](O)CN[C@H]1C[C@]2(C[C@H](O)C2)Oc2ncc(CC(C)C)cc21 [compound 250, (2R)—N-((1S,2R)-1-((4-fluorophenyl)methyl)-2-hydroxy-3-(((1s,3S,4′S)-3-hydroxy-6′-(2-methylpropyl)-3′,4′-dihydrospiro[cyclobutane-1,2′-pyrano[2,3-b]pyridin]-4′-yl)amino)propyl)-2-(methyloxy)propanamide] |  |  | 0.0128 | IC50 [1, 8]: 0.0273 µM
28 | COCC(=O)N[C@@H](Cc1ccc2c(c1)OCO2)[C@H](O)CN[C@H]1CC2(CCC2)Oc2ncc(CCC(F)(F)F)cc21 [compound 195] | 0.621 |  | 0.754 | 
